Measured values reported in patent US10610504B2, “Alpha-cell re-generation combined with conversion to beta cells” (INSERM (INSTITUT NATIONAL DE LA SANTÉ ET DE LA RECHERCHE …, priority 2014, dated 2020).

Experiments:
[1] = test system: insulin+ cells (beta cells); assay: Immunohistochemical characterisation of pancreata, GABA and Glu001 combination study; type: in vivo, mice; conditions: 3-month old WT animals treated for a month, daily IP; vs saline
Description: To determine if the combination of GABA and Glu001 could increase beta-cell mass wild type mice were treated with 1) saline, 2) GABA (daily IP injections of 50 μM/40 g mouse), 3) Glu001 (daily IP injections of 4 mg/kg) and 4) GABA+Glu001.

beta-like cells = conditions: upon GABA administration, as mentioned in WO14048788; cited from earlier work

NCCCC(=O)O [GABA, gamma-amino butyric acid]
insulin+ cell count / beta cell mass [1]: expected increase | beta-like cell number (beta-like cells): progressive increase
